Measured values reported in patent US20140031217A1, “HERBICIDAL COMPOSITIONS COMPRISING 4-AMINO-3-CHLORO-5-FLUORO-6-(4-CHLORO-2-FLUORO-3-METHOXYPHENYL)PYRIDINE-2-CARBOXYLIC ACID OR A DERIVATIVE THEREOF AND AUXIN TRANSPORT INHIBITORS” (DOW AGROSCIENCES LLC, priority 2012, published 2014).

What was measured:
[1] = tested on: ECHCO; test: Postemergence foliar-applied greenhouse weed control, ECHCO; format: in vivo, Echinochloa colona (L.) Link
Description: Seeds or nutlets of the desired test plant species were planted in a soil matrix prepared by mixing a loam or sandy loam soil (e.g., 28.6 percent silt, 18.8 percent clay, and 52.6 percent sand, with a pH of about 5.8 and an organic matter content of about 1.8 percent) and calcareous grit in an 80 to 20 ratio. The soil matrix was contained in plastic pots with a volume of 1 quart and a surface area of 83.6 square centimeters (cm^2). When required to ensure good germination and healthy plants, a fungicide treatment and/or other chemical or physical treatment was applied. The plants were grown for 8-22 days in a greenhouse with an approximate 14 h photoperiod which was maintained at about 29° C. during the day and 26° C. during the night. Nutrients (Peters Excel® 15-5-15 5-Ca 2-Mg and iron chelate) were applied in the irrigation solution as needed and water was added on a regular basis. Supplemental lighting was provided with overhead metal halide 1000-Watt lamps as necessary. The plants were employed for testing when they reached the first through fourth true leaf stage.
Treatments consisted of the acid or esters of 4-amino-3-chloro-5-fluoro-6-(4-chloro-2-fluoro-3-methoxy-phenyl) pyridine-2-carboxylic acid (Compound A), each formulated as an SC (suspension concentrate), and various herbicidal components alone and in combination. Forms of compound A were applied on an acid equivalent basis.
Other herbicidal components were applied on an active ingredient basis and included auxin transport inhibiting (ATI) herbicides chlorflurenol (technical material), chlorflurenol-methyl (technical material), diflufenzopyr (technical material), diflufenzopyr sodium (technical material), flurenol-methyl (technical material) and naptalam (technical material).
Treatment requirements were calculated based upon the rates being tested, the concentration of active ingredient or acid equivalent in the formulation, and a 12 mL application volume at a rate of 187 L/ha.
For treatments comprised of formulated and technical compounds, weighed amounts of the technical materials were placed individually in 25 mL glass vials and dissolved in a volume of 97:3 v/v acetone/DMSO to obtain 12× stock solutions, and measured amounts of the formulated compounds were placed individually in 25 mL glass vials and diluted in a volume of 1.5% (v/v) crop oil concentrate or water to obtain 12× stock solutions. […] Application solutions were prepared by adding an appropriate amount of each stock solution (e.g., 1 mL) and diluted to the appropriate final concentrations with the addition of an appropriate amount of an aqueous mixture of 1.5% (v/v) crop oil concentrate so that the final spray solutions contained 1.25% (v/v) crop oil concentrate. When required, additional water and/or 97:3 v/v acetone/DMSO was added to individual application solutions so that the final acetone and DMSO concentrations of the application solutions being compared were 8.1% and 0.25%, respectively.
All stock solutions and applications solutions were visually inspected for compound compatibility prior to application. Spray solutions were applied to the plant material with an overhead Mandel track sprayer equipped with an 8002E nozzle calibrated to deliver 187 L/ha over an application area of 0.503 m^2 at a spray height of 18 to 20 inches (46 to 50 cm) above average plant canopy height. Control plants were sprayed in the same manner with the solvent blank.
The treated plants and control plants were placed in a greenhouse as described above and watered by sub-irrigation to prevent wash-off of the test compounds. After approximately 3 weeks, the condition of the test plants as compared with that of the untreated plants was determined visually and scored on a scale of 0 to 100 percent where 0 corresponds to no injury or growth inhibition and 100 corresponds to complete kill. […]

[2] = tested on: ECHOR; test: In-water applied (paddy) greenhouse weed control, ECHOR; format: in vivo, Echinochloa oryzoides (Ard.) Fritsch
Protocol: Weed seeds or nutlets of the desired test plant species were planted in puddled soil (mud) prepared by mixing a shredded, non-sterilized mineral soil (50.5 percent silt, 25.5 percent clay, and 24 percent sand, with a pH of about 7.6 and an organic matter content of about 2.9 percent) and water at a 1:1 volumetric ratio. The prepared mud was dispensed in 365 mL aliquots into 16-ounce (oz.) non-perforated plastic pots with a surface area of 86.59 square centimeters (cm^2) leaving a headspace of 3 centimeters (cm) in each pot. Mud was allowed to dry overnight prior to planting or transplanting. Rice seeds were planted in Sun Gro MetroMix® 306 planting mixture, which typically has a pH of 6.0 to 6.8 and an organic matter content of about 30 percent, in plastic plug trays. Seedlings at the second or third leaf stage of growth were transplanted into 840 mL of mud contained in 32-oz. non-perforated plastic pots with a surface area of 86.59 cm^2 4 days prior to herbicide application. The paddy was created by filling the headspace of the pots with 2.5 to 3 cm of water. When required to ensure good germination and healthy plants, a fungicide treatment and/or other chemical or physical treatment was applied. The plants were grown for 4-22 days in a greenhouse with an approximate 14 h photoperiod which was maintained at about 29′C during the day and 26° C. during the night. Nutrients were added as Osmocote® (19:6:12, N:P:K+minor nutrients) at 2 g per 16-oz. pot and 4 g per 960-mL 32-oz. pot. Water was added on a regular basis to maintain the paddy flood, and supplemental lighting was provided with overhead metal halide 1000-Watt lamps as necessary. The plants were employed for testing when they reached the second or third true leaf stage.
Treatments consisted of the acid or esters of 4-amino-3-chloro-5-fluoro-6-(4-chloro-2-fluoro-3-methoxy-phenyl)pyridine-2-carboxylic acid (compound A) each formulated as an SC and various herbicidal components alone and in combination. Forms of compound A were applied on an acid equivalent basis.
Other herbicidal components were applied on an active ingredient basis and included auxin transport inhibiting (ATI) herbicides chlorflurenol-methyl (technical material), chlorflurenol (technical material), diflufenzopyr (technical material), dilfufenzopyr sodium (technical material), flurenol-methyl (technical material,) and naptalam (technical material).
Treatment requirements for each compound or herbicidal component were calculated based upon the rates being tested, the concentration of active ingredient or acid equivalent in the formulation, an application volume of 2 mL per component per pot, and an application area of 86.59 cm^2 per pot.
For formulated compounds, a measured amount was placed in an individual 100 or 200 mL glass vial and was dissolved in a volume of 1.25% (v/v) Agri-Dex® crop oil concentrate to obtain application solutions.
For technical grade compounds, a weighed amount was placed in an individual 100 to 200 mL glass vial and was dissolved in a volume of acetone to obtain concentrated stock solutions. […] The concentrated stock solutions obtained were diluted with an equivalent volume of an aqueous mixture containing 2.5% (v/v) crop oil concentrate so that the final application solutions contained 1.25% (v/v) crop oil concentrate.
Applications were made by injecting with a pipetter appropriate amounts of the application solutions, individually and sequentially, into the aqueous layer of the paddy. Control plants were treated in the same manner with the solvent blank. Applications were made so that all treated plant material received the same concentrations of acetone and crop oil concentrate.
The treated plants and control plants were placed in a greenhouse as described above and water was added as needed to maintain a paddy flood. […]

| SMILES | Visual Weed Control (%) Obs ([1]; 20 DAA, 4.38 gae/ha) [%] | Visual Weed Control (%) Obs ([1]; 20 DAA, 8.75 gae/ha) [%] | Visual Weed Control (%) Obs ([2]; 19 DAA, 32 gae/ha) [%] | Visual Weed Control (%) Obs ([2]; 20 DAA, 4.38 gae/ha) [%] | Visual Weed Control (%) Obs ([2]; 20 DAA, 8.75 gae/ha) [%] | Visual Weed Control (%) Obs ([1]; 21 DAA, 4.38 gae/ha) [%] | Visual Weed Control (%) Obs ([2]; 20 DAA, 17.5 gae/ha) [%] | Visual Weed Control (%) Obs ([2]; 20 DAA, 35 gae/ha) [%] | Visual Weed Control (%) Obs ([2]; 22 DAA, 8.75 gae/ha) [%] | Visual Weed Control (%) Obs ([2]; 22 DAA, 17.5 gae/ha) [%] | Visual Weed Control (%) Obs ([2]; 22 DAA, 35 gae/ha) [%] |
| --- | --- | --- | --- | --- | --- | --- | --- | --- | --- | --- | --- |
| COc1c(Cl)ccc(-c2nc(C(=O)OCc3ccccc3)c(Cl)c(N)c2F)c1F [Compound A Benzyl Ester] | 60 | 80 | 25 | 10 | 15 | – | – | – | – | – | – |
| COc1c(Cl)ccc(-c2nc(C(=O)O)c(Cl)c(N)c2F)c1F [Compound A Acid, 4-amino-3-chloro-6-(4-chloro-2-fluoro-3-methoxyphenyl)-5-fluoropyridine-2-carboxylic acid] | 40 | – | – | – | 10 | 60 | 15 | 25 | 0 | 20 | 20 |
